Measured values: US7375125B2, “Melanocortin-4 receptor binding compounds and methods of use thereof” (Ore Pharmaceuticals, Inc., priority 1999, dated 2008)
Counter-ions that a name gives are not always drawn.

System: lean C57BL/6J mice
Test: In vivo assay for MC4-R antagonist activity: food intake of food deprived lean mice treated with MT II
Conditions: 15 nmol intracerebroventricular prior to MT II 0.05 nmol, six hour period (FIGS. 2, 3)
Method: The following in vivo assay was used to test the effects of MC4-R antagonists on mice.
Male lean C57BL/6J mice were individually housed in macrolon cages (22±2 C.°; 12:12 h light/dark cycle with lights off at 6 pm). Tap water and mouse chow diet were given ad libitum. Mice were stereotaxically implanted with a chronic guide cannula aimed to the third ventricle (intracerabroventricular) one week prior to testing.
In this experiment, food deprived lean mice were injected intracerabroventricularly with either Compound N or Compound O, at a dose of 15 nmol prior to injection of MT II at the dose of 0.05 nmol.

Row | Compound | effect on food intake of mice treated with the MC4-R agonist MT II
1 | COc1ccc([N+](=O)[O-])cc1CSc1ccccc1C1=NCCCN1 [N, 2-[2-(2-Methoxy-5-nitro-benzylsulfanyl)-phenyl]-1,4,5,6-tetrahydro-pyrimidine; hydrobromide] | partially reverses the effect
2 | c1ccc(C2=NCCCN2)c(SCc2cccc3ccccc23)c1 [O, 2-[2-(Naphthalen-1-ylmethylsulfanyl)-phenyl]-1,4,5,6-tetrahydro-pyrimidine; hydrochloride] | did not significantly effect the food intake
